Laboratory results taken from patent US7091351B2, “Vanadium compounds for treating cancer” (Parker Hughes Institute, priority 1998, dated 2006).

Assays:
Format in all cases: cell-based, human
[1] = system: Tera-2 testicular cancer cells; test: MTT cytotoxicity assay of vanadocenes, TERA-2 cells; details: 24 h, 1.9-250 μM
Method: (§1) Human testicular cancer cell lines, Tera-2 (embryonal carcinoma) and Ntera-2 (pluripotent embryonal carcinoma) were obtained from the American Type Culture Collection (ATCC) (Rockeville, Md.) and propagated in T-25, T-75, or T-150 cm^2 tissue culture flasks (Corning Corp., Corning, N.Y.) in McCoy's 5A medium and Dulbecco's modified Eagle's medium respectively. Both media were supplemented with 10% fetal calf serum (FCS), 4 mM glutamine, 100 U/ml penicillin G, and […] streptomycin sulfate. All tissue culture reagents were obtained from Life Technologies Inc. (GIBCO-BRL), Gaithersburg, Md. Cell lines were cultivated for a minimum of two passages after thawing prior to experimentation. Other cell lines that were used in this study were the human B-lineage acute lymphoblastic leukemia (ALL) cell line NALM-6. Uckun, F. M., Evans, W. E., Forsyth, C. J., Waddick, K. G., Tuel-Ahlgren, L., Chelstrom, L. M., Burkhardt, A., Bolen, J., Myers, D. E. Biotherapy of B-cell precursor leukemia by targeting genistein to CD19-associated tyrosine kinase. Science (Washington DC) 267:886–91, 1995; T-lineage ALL cell line MOLT-3, Waurzyniak, B., Shneider, E. A., Tumer, N., Yanishevski, Y., Gunther, R., Chelstrom, L., Wendorf, H., Myers, D. E., Irvin, J. D., Messinger, Y., Ek, O., Zeren, T., Chandan-Langlie, M., Evans, W. E., Uckun, F. M. In vivo toxicity, pharmacokinetics, and antileukemic activity of TXU (anti-CD7)-pokeweed antiviral protein immunotoxin. Clinical Cancer Research 3:881–890, 1997; AML cell line HL-60, Perentesis, J. P., Waddick, K. G., Bendel, A. E., Shao, Y., Warman, B. E., Chandan-Langlie, M., and Uckun, F. M. Induction of apoptosis in multi-drug resistant andradiation-resistant acute myeloid leukemia cells by a recombinant fusion toxin directed against the granulocyte macrophage colony stimulating factor receptor. Clin. Cancer Res. 3:347–355, 1997; breast cancer cell lines MDA-MB-231 and BT-20, Uckun, F. M., Narla, R. K., Jun, X., Zeren, T., Venkatachalam, T., Waddick, K. G., Rostostev, A., Myers, D. E. Cytotoxic activity of EGF-genstein against breast cancer cells. Clin. Cancer Res. 4:901–912, 1998; glioblastoma cell lines U87 and U373, Narla, R. K., Liu, X., Myers, D. E., and Uckun, F. M. 4-(3′-Bromo-4′hydroxylphenyl)-amino-6,7-dimethoxyquinazoline (WHI-P154): A novel quinazoline derivative with potent cytotoxic activity against human glioblastoma cells. Clin. Cancer Res. 4:1405–1414, 1998.
(§2) MTT (3-[4,5-dimethyl thiazol-2-yl]-2,5-diphenyltetrazolium bromide)-based colorimetric assays were used for evaluation of the cytotoxicity of vanadocene compounds. Mosmann, T. Rapid colorimetric assay for cellular growth and survival: application to proliferation and cytotoxicity assays. J. Immunol. Methods, 65: 55–63, 1983. Briefly, cells were harvested with 0.125% (w/v) trypsin-0.02% EDTA (GIBCO-BRL) from exponential-phase maintenance cultures and centrifuged (300 g×5 min). After suspension and counting, cells were dispensed within triplicate 96-well tissue culture plates in 100 μl volumes. After 24 h incubation, the culture medium was discarded and replaced with 100 μl of fresh medium containing serial two-fold dilutions of drugs in medium to yield 1.9 μM to 250 μM. All compounds were reconstituted in DMSO to a concentration of 100 mM, and the stock solution was made fresh for each experiment. Control wells consisted of medium containing 0.25% of DMSO alone were used for solvent control. Culture plates were then incubated for 24 h before adding 10 μl of MTT solution (5 mg/ml in PBS) to each well. Wells containing only medium and MTT were used as controls for each plate. The tetrazolium/formazan reaction was allowed to proceed for 4 h at 37° C., and then 100 μl of the solubilization buffer (10% sodium dodecyl sulfate in 0.1% HCl) were added to all wells and mixed thoroughly to dissolve the dark blue formazan crystals. […]

[2] = system: Ntera-2 testicular cancer cells; test: MTT cytotoxicity assay of vanadocenes, NTERA-2 cells; details: 24 h, 1.9-250 μM
Method: as §1, §2

[3] = system: Tera-2 testicular cancer cells; test: Flow cytometric TUNEL apoptosis assay, TERA-2 cells; details: 24 h, TUNEL-positive nuclei
Method: (§3) A flow cytometric two-color terminal […] transferase (TdT)-mediated digoxigenin-uridine triphosphate (dUTP) nick-end labeling assay (TUNEL) was employed to detect apoptotic nuclei. Gavrieli, Y., Sherman, Y., Ben-Sasson, S. A. Identification of programmed cell death in situ via specific labeling of nuclear DNA fragmentation. J. Cell Biol., 119: 493–501, 1992. Exponentially growing cells (10^6/ml) were incubated in DMSO alone (0.1%) or treated with 100 μM each of the 16 vanadocenes (VDB, VDC, VMDC, VDI, VDA, VDCN, VDOCN, VDSCN, VDSeCN, VDT, VDCO, VDFe, VD(acac), VDH, VD(dpy), and VD(dtc) in 0.1% DMSO for 24 h. Cells were washed in PBS, fixed in 4% paraformaldehyde in PBS for 15 min on ice. Following two washings in PBS, they were permeabilized with 0.1% Triton X-100 in 0.1% sodium citrate for 2 min on ice, and washed twice in PBS. Labeling of exposed 3′-hydroxyl (3′-OH) ends of fragmented nuclear DNA was performed using TdT and fluorescein isothiocyanate (FITC)-conjugated dUTP according to the manufacturer's recommendations (Boehringer Mannheim, Indianapolis, Ind.). Cells were counterstained with 5 μg/ml PI. Control samples included: (i) untreated cells; (ii) cells incubated with the reaction mixture without the TdT enzyme. Cells were analyzed with a FACS Calibur flow cytometer (Becton Dickinson, Mountain View, Calif.). Relative DNA content (PI) was detected with band-pass filter 585/42, and dUTP incorporation (FITC) was detected with band-pass filter 530/30. Fluorescence was compensated for in the acquisition software using single-label control samples. Data were acquired in listmode, gated to 10,000 events per sample, and analyzed with the use of CELLQuest software program (Becton Dickinson). […] Vanadocene-induced apoptosis is shown by an increase in the number of cells staining with FITC-dUTP. The M1 and M2 gates were used to demarcate non-apoptotic and apoptotic PI-counterstained cell populations, respectively. TUNEL assays were performed using two testicular cell lines Tera-2 and Ntera-2 following exposure to each of the 16 vanadocenes. In other experiments, MC540 binding (as an early marker of apoptosis) and PI permeability (as a marker of advanced stage apoptosis) were simultaneously measured in human cancer cells 24 hours after exposure to vanadocenes, as previously described. Uckun, F. M., Narla, R. K., Jun, X., Zeren, T., Venkatachalam, T., Waddick, K. G., Rostostev, A., Myers, D. E. Cytotoxic activity of EGF-genstein against breast cancer cells. Clin. Cancer Res. 4:901–912, 1998. Vassilev, A., Ozer, Z., Navara, C., Mahajan, S., and Uckun, F. M. Bruton's tyrosine kinase as an inhibitor of the Fas/CD95 death-inducing signaling complex. J. Biol. Chem. 274:1646–56, 1999. Whole cells were analyzed using a FACStar Plus flow cytometer (Becton Dickinson, San Jose, Calif.). All analyses were done using 488 nm excitation from an argon laser. MC540 and PI emissions were split with a 600 nm short pass dichroic mirror and a 575 nm band pass filter was placed in front of one photomultiplier tube to measure MC540 emission and a 635 nm band pass filter was used for PI emission.

[4] = system: Ntera-2 testicular cancer cells; test: Flow cytometric TUNEL apoptosis assay, NTERA-2 cells; details: 24 h, TUNEL-positive nuclei
Method: as §3

U373 glioblastoma cells = test: MTT cytotoxicity assay of vanadocenes, U373 cells; details: 24 h
Method: as §1, §2

Molecule	IC50 [1] [µM]	IC50 [2] [µM]	% Apoptosis at 100 μM TERA-2 [3]	% Apoptosis at 100 μM NTERA-2 [4]	IC50 (U373 glioblastoma cells) [µM]
CC(=O)[CH-]C(C)=O.O=S(=O)([O-])C(F)(F)F.[V+4].c1cc[cH-]c1.c1cc[cH-]c1 [VD(acac), VCp2(acac)(O3SCF3)]	64	75	72 ± 17%	48 ± 13 (N = 3) %	
[O-]c1ccccc1[O-].[V+2].c1cc[cH-]c1.c1cc[cH-]c1 [VD(cat), Cp2V(cat)]	79	93		12 (9, 15) %	
[Cl-].[N-]=C=O.[V+2].c1cc[cH-]c1.c1cc[cH-]c1 [VDCO, VCp2(NCO)Cl]	50	90	73 (67, 78) %	98 (97, 99) %	
CC#N.[Cl-].[Cl-].[Cl-].[Cl-].[Cl-].[Fe+3].[V+4].c1cc[cH-]c1.c1cc[cH-]c1 [VDFe, VCp2Cl (CH3CN)(FeCl4)]	100	113	85 (84, 87) %	87 (81, 94) %	
O=S(=O)(O)C(F)(F)F.O=S(=O)(O)C(F)(F)F.[V+2].c1cc[cH-]c1.c1cc[cH-]c1 [VDT, VCp2(O3SCF3)2]	76	137	71 (71, 71) %	55 ± 26 (N = 4) %	
Cc1c(C)c(C)[c-](C)c1C.Cc1c(C)c(C)[c-](C)c1C.[Cl-].[Cl-].[V+2] [VPMDC, V(Me5Cp)2Cl2]	127	44	35 (35, 36) %	34 (33, 35) %	172
HfCp2Cl2 [HDC]	> 250	> 250			> 250
MoCp2Cl2 [MDC]	> 250	> 250			> 250
TiCp2Cl2 [TDC]	> 250	> 250			> 250
V(Me5Cp)OCl [VPMOC]	> 250	77	5 (5, 6) %	6 (6, 7) %	
V(MeCp)2Cl2.0.5 H2O [VMDC]	123	86	45 (27, 61) %	13 (13, 14) %	61
VCp2(H) [VDH]	118	125	84 ± 2 (N = 3) %	20 ± 5 (N = 3) %	> 250
VCp2(NCO)2 [VDOCN]	31	63	85 (80, 90) %	95 (94, 96) %	
VCp2(NCS)2.0.5H2O [VDSCN]	23	17	64 (58, 69) %	53 (46, 60) %	19
VCp2(PH) [VDPH]	> 250	61	88 ± 3 (N = 3) %	90 ± 3 (N = 4) %	
VCp2(bpy)(O3SCF3)2 [VD(bpy)]	37	53		78 (77, 78) %	
VCp2(dtc) [VD(dtc)]	60	83	83 (82, 84) %	67 ± 13 (N = 3) %	7
ZrCp2Cl2 [ZDC]	> 250	> 250			> 250
